According to patent US20240239752A1, “BICYCLIC HETEROAROMATIC INHIBITORS OF KLK5” (BioCryst Pharmaceuticals, Inc., priority 2021, published 2024):

molecular target: T1, recombinant human KLK5 (Homo sapiens, UniProt Q9Y337); assay: Kallikrein (KLK) 5 enzymatic assay (Boc-VPR-AMC fluorogenic substrate); type: biochemical; settings: recombinant human KLK5 0.1 μg/well, Boc-VPR-AMC 100 μM, pH 7.5, room temperature, 1% DMSO; tested a minimum of three times
T1 construct: purchased Novoprotein or R&D Systems C415 or 1108-SE
T1 sequence (Q9Y337 23-293): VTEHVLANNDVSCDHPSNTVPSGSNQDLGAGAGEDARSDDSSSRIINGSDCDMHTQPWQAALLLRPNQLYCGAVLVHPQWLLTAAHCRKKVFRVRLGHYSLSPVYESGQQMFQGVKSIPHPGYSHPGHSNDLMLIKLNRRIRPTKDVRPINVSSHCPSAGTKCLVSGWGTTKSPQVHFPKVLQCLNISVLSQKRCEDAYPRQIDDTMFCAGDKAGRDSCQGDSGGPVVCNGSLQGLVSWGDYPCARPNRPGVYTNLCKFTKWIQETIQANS
Text: Kallikrein-5 (KLK5) is a member of the serine protease family of proteolytic enzymes, confirmed to have trypsin-like activity (Michael I P, et al. Biochemical and enzymatic characterization of human kallikrein 5 (hK5), a novel serine protease potentially involved in cancer progression (J. Biol. Chem. 2005 Apr. 15; 280 (15): 14628-35). Boc-VPR-AMC is a fluorogenic peptide substrate composed of the short peptide chain, Valine-Proline-Arginine (VPR) and the fluorophore, 7-amino-4-methylcoumarin (AMC). KLK5 is able to cleave the fluorogenic peptide substrate Boc-VPR-AMC, releasing the AMC fluorophore, which causes a fluorescent emission in proportion with the enzymatic activity of KLK5. The KLK5 enzymatic activity is monitored by measuring fluorescent emission at wavelengths of 380 nm (excitation) and 460 nm (emission).
The IC50 value of compounds against KLK5 (i.e., the concentration of the compound that inhibits 50% of the enzymatic activity) was calculated according to the procedure reported by R&D systems (Recombinant human KLK5, Catalog Number: 1108-SE), with the exception the pH of the assay was modified from 8.0 to 7.5. Specifically, recombinant human KLK5 (Novoprotein Catalog #C415 or R&D systems Catalog #1108-SE) and fluorogenic peptide Boc-VPR-AMC substrate (R&D Catalog #ES011) were each separately diluted in assay buffer (0.1 M NaH2PO4 buffer, pH 7.5). The compounds of the disclosure were dissolved in DMSO at a concentration of 10 mM. A portion of this stock solution was added to the recombinant human KLK5 solution to provide a desired concentration of the compounds and the mixture was incubated at room temperature. The reaction was initiated by the addition of the fluorogenic peptide substrate at room temperature. The final concentration of recombinant human KLK5 was 0.1 μg/well and the final concentration of the fluorogenic substrate was 100 μM (final volume of 100 μL, 1% DMSO). The assays were performed in 96 well F16 Black Maxisorp Plate (Nunc Catalog #475515). Controls included assay buffer alone and enzyme solutions to which DMSO was added. The reaction rates were measured spectrophotometrically by excitation at 380 nm and emission at 460 nm on a Biotek Synergy H1 plate reader.
The reaction rate for enzyme alone was compared to the reaction rate of enzyme in the presence of compound and the percent inhibition was calculated as shown below:
Percent Inhibition=[Rate with inhibitor/Rate without inhibitor)]×100
An IC50 indicates a compound concentration that inhibits 50% of the enzymatic activity. Compounds were tested a minimum of three times.

IC50 | Structure (SMILES)
> 10 µM | CC(C)n1nc(COc2ccccc2CC(=O)O)c2cc(-c3cc4cc(N)ccc4cn3)ccc21 [Compound 38c, 2-(2-((5-(6-aminoisoquinolin-3-yl)-1-isopropyl-1H-indazol-3-yl)methoxy)phenyl)acetic acid]
> 10 µM | CC(C)n1nc(COc2ccccc2CC(=O)O)c2cc(-c3ccc4ncnc(N)c4c3)ccc21 [Compound 39c, 2-(2-((5-(4-aminoquinazolin-6-yl)-1-isopropyl-1H-indazol-3-yl)methoxy)phenyl)acetic acid]
< 1 µM | CC(C)n1nc(COc2ccccc2CC(=O)O)c2cc(-c3cccc4c(N)nccc34)ccc21 [Compound 40b, 2-(2-((5-(1-aminoisoquinolin-5-yl)-1-isopropyl-1H-indazol-3-yl)methoxy)phenyl)acetic acid]
> 10 µM | CC(C)n1nc(COc2ccccc2CC(=O)O)c2cc(-c3ccc4c(N)nc(N)nc4c3)ccc21 [Compound 41c, 2-(2-((5-(2,4-diaminoquinazolin-7-yl)-1-isopropyl-1H-indazol-3-yl)methoxy)phenyl)acetic acid]
< 1 µM | Nc1nccc2ccc(-c3ccc4c(c3)c(COc3ccccc3CC(=O)O)nn4C3CCCC3)cc12 [Compound 42d, 2-(2-((5-(1-aminoisoquinolin-7-yl)-1-cyclopentyl-1H-indazol-3-yl)methoxy)phenyl)acetic acid]
> 10 µM | CC(C)n1nc(COc2ccccc2CC(=O)O)c2cc(-c3ccc4c(N)cccc4c3)ccc21 [Compound 43d, 2-(2-((5-(5-aminonaphthalen-2-yl)-1-isopropyl-1H-indazol-3-yl)methoxy)phenyl)acetic acid]
> 10 µM | CC(C)n1nc(COc2ccccc2CC(=O)O)c2cc(-c3ccc4ccnc(O)c4c3)ccc21 [Compound 44d, 2-(2-((5-(1-hydroxyisoquinolin-7-yl)-1-isopropyl-1H-indazol-3-yl)methoxy)phenyl)acetic acid]
> 10 µM | CC(C)n1nc(COc2ccccc2CC(=O)O)c2cc(-c3cccc(-c4c[nH]nc4N)c3)ccc21 [Compound 45c, 2-(2-((5-(3-(3-amino-1H-pyrazol-4-yl)phenyl)-1-isopropyl-1H-indazol-3-yl)methoxy)phenyl)acetic acid]
> 10 µM | CC(C)n1nc(COc2ccccc2CC(=O)O)c2cc(-c3ccc4cc(Cl)nc(N)c4c3)ccc21 [Compound 46d, 2-(2-((5-(1-amino-3-chloroisoquinolin-7-yl)-1-isopropyl-1H-indazol-3-yl)methoxy)phenyl)acetic acid]
> 10 µM | CC(C)n1nc(COc2ccccc2CC(=O)O)c2cc(-c3cccc(-c4nn[nH]n4)c3)ccc21 [Compound 47c, 2-(2-((5-(3-(2H-tetrazol-5-yl)phenyl)-1-isopropyl-1H-indazol-3-yl)methoxy)phenyl)acetic acid]
< 1 µM | Nc1nccc2ccc(-c3ccc4c(c3)c(COc3ccccc3CC(=O)O)nn4C3CCCCC3)cc12 [Compound 48d, 2-(2-((5-(1-aminoisoquinolin-7-yl)-1-cyclohexyl-1H-indazol-3-yl)methoxy)phenyl)acetic acid]
> 10 µM | CC(C)n1nc(COc2ccccc2CC(=O)O)c2cc(-c3ccc4c(N)noc4c3)ccc21 [Compound 49a, 2-(2-((5-(3-aminobenzo[d]isoxazol-6-yl)-1-isopropyl-1H-indazol-3-yl)methoxy)phenyl)acetic acid]
> 10 µM | CC(C)n1nc(COc2ccccc2CC(=O)O)c2cc(-c3ccc4ccc(N)nc4c3)ccc21 [Compound 50c, 2-(2-((5-(2-aminoquinolin-7-yl)-1-isopropyl-1H-indazol-3-yl)methoxy)phenyl)acetic acid]
> 10 µM | CC(C)n1nc(COc2ccccc2CC(=O)O)c2cc(-c3cccc(-c4cnc[nH]4)c3)ccc21 [Compound 51c, 2-(2-((5-(3-(1H-imidazol-5-yl)phenyl)-1-isopropyl-1H-indazol-3-yl)methoxy)phenyl)acetic acid]

The remaining lines, values behind:

Structure (SMILES) | IC50
CC(C)n1nc(COc2ccccc2CC(=O)O)c2cc(-c3ccc4nccc(N)c4c3)ccc21 [Compound 25c, 2-(2-((5-(4-aminoquinolin-6-yl)-1-isopropyl-1H-indazol-3-yl)methoxy)phenyl)acetic acid] | 1 to 10 µM
CC(C)n1nc(COc2ccccc2CC(=O)O)c2cc(-c3ccc4[nH]c(N)nc4c3)ccc21 [Compound 26c, 2-(2-((5-(2-amino-1H-benzo[d]imidazol-5-yl)-1-isopropyl-1H-indazol-3-yl)methoxy)phenyl)acetic acid] | 1 to 10 µM
CC(C)n1nc(COc2ccccc2CC(=O)O)c2cc(-c3ccc4oc(N)nc4c3)ccc21 [Compound 27c, 2-(2-((5-(2-aminobenzo[d]oxazol-5-yl)-1-isopropyl-1H-indazol-3-yl)methoxy)phenyl)acetic acid] | > 10 µM
N=C(N)c1cccc(-c2ccc3c(c2)c(COc2ccccc2CC(=O)O)nn3C2CCC2)c1 [Compound 28d, 2-(2-((5-(3-carbamimidoylphenyl)-1-cyclobutyl-1H-indazol-3-yl)methoxy)phenyl)acetic acid] | < 1 µM
CC(C)n1nc(COc2ccccc2CC(=O)O)c2cc(-c3ccc(C(=N)N)c(O)c3)ccc21 [Compound 29c, 2-(2-((5-(4-carbamimidoyl-3-hydroxyphenyl)-1-isopropyl-1H-indazol-3-yl)methoxy)phenyl)acetic acid] | > 10 µM
CC(C)n1nc(COc2ccccc2CC(=O)O)c2cc(-c3cccc4c(N)noc34)ccc21 [Compound 30c, 2-(2-((5-(3-aminobenzo[d]isoxazol-7-yl)-1-isopropyl-1H-indazol-3-yl)methoxy)phenyl)acetic acid] | > 10 µM
CC(C)n1nc(COc2ccccc2CC(=O)O)c2cc(-c3cccc4c(N)n[nH]c34)ccc21 [Compound 31c, 2-(2-((3′-amino-1-isopropyl-1H, 1′H-[5,7′-biindazol]-3-yl)methoxy)phenyl)acetic acid] | 1 to 10 µM
CC(C)n1nc(COc2ccccc2CC(=O)O)c2cc(-c3ccc4[nH]nc(N)c4c3)ccc21 [Compound 32c, 2-(2-((3′-amino-1-isopropyl-1H, 1′H-[5,5′-biindazol]-3-yl)methoxy)phenyl)acetic acid] | > 10 µM
CC(C)n1nc(COc2ccccc2CC(=O)O)c2cc(-c3ccn4ncc(N)c4n3)ccc21 [Compound 33c, 2-(2-((5-(3-aminopyrazolo[1,5-a]pyrimidin-5-yl)-1-isopropyl-1H-indazol-3-yl)methoxy)phenyl)acetic acid] | > 10 µM
CC(C)n1nc(COc2ccccc2CC(=O)O)c2cc(-c3ccc4cc(N)ncc4c3)ccc21 [Compound 34c, 2-(2-((5-(3-aminoisoquinolin-7-yl)-1-isopropyl-1H-indazol-3-yl)methoxy)phenyl)acetic acid] | > 10 µM
CC(C)n1nc(COc2ccccc2CC(=O)O)c2cc(-c3ccc4nc(N)ccc4c3)ccc21 [Compound 35c, 2-(2-((5-(2-aminoquinolin-6-yl)-1-isopropyl-1H-indazol-3-yl)methoxy)phenyl)acetic acid] | > 10 µM
CC(C)n1nc(COc2ccccc2CC(=O)O)c2cc(-c3ccc4cc(N)ccc4c3)ccc21 [Compound 36c, 2-(2-((5-(6-aminonaphthalen-2-yl)-1-isopropyl-1H-indazol-3-yl)methoxy)phenyl)acetic acid] | > 10 µM
Nc1nccc2ccc(-c3ccc4c(c3)c(COc3ccccc3CC(=O)O)nn4C3CCC3)cc12 [Compound 37c, 2-(2-((5-(1-aminoisoquinolin-7-yl)-1-cyclobutyl-1H-indazol-3-yl)methoxy)phenyl)acetic acid] | < 1 µM
